Reference: patent US6395740B1, “Calcitonin mimetics” (ZymoGenetics, Inc., priority 1997, dated 2002)
pEC50: −log10 of the molar value. Values after ≈ are worked out from the molar mass of the structure shown.

What was measured:
[1] = tested on: PTH-induced bone resorption in mouse calvariae; assay: Calvarial assay: inhibition of PTH-induced bone resorption (calcium release); type: cell-based; conditions: 1 nM PTH 1-34, 72 hours, read-out: Release of PTH Induced Ca++ IC50
Experimental: Calvaria from 4-day old neonatal CD-1 mice (pregnant mice received from Charles River Laboratories, Wilmington, Mass.) were trimmed with fine-tipped scissors to leave the parietal regions, including the sagittal suture. These trimmed bones were placed singly per well into 6-well cell culture cluster plates (Costar, Pleasanton, Calif.) with 1 mL/well of growth medium (DMEM, BioWhittaker, Walkersville, Md.) with 4.5 g/L glucose, 0.29 mg/mL L-glutamine, 1 mM sodium pyruvate, 15% heat-inactivated horse serum, and antibiotics (penicillin-G 50 μg/mL, streptomycin 50 μg/mL, and neomycin 100 μg/mL), and rocked gently (RedRocker™, model PR50-115V, Hoefer, San Francisco, Calif.) at 37° C. in a 5% CO2 humidified incubator for 24 hours preincubation.
Following preincubation, medium was removed and replaced with 1.5 mL/well of growth medium containing 1 nM parathyroid hormone (PTH) 1-34 (Sigma) to stimulate bone resorption. For evaluation of the ability of calcitonin mimetics to inhibit PTH induced bone resorption, mimetic compounds in DMSO were added to the growth medium at concentrations ranging from 1-400 μg/mL (final assay concentration of DMSO less than or equal to […]). In each exierimerec human calcitonin (0.02-20 nM, 0.2-2 nM preferred) was added to PTH treated bones as a positive control. […] All control wells contained a final assay concentration of DMSO equal to that present in calcitonin mimetic treated wells.
Five bones were included in each sample group. Bones were incubated for 72 hours following PTH addition to allow resorption of bone to occur. Observations were made of the general appearance, healthiness and number of cells that migrate from the calvaria during the incubation as a possible indication of possible toxicity. Calvaria to be examined histologically were transferred to glass scintillation vials containing 10 mL of 10% neutral buffered formalin. The medium was removed from the wells, and total calcium measurements were made using a Nova 7/7+7 Electrolyte Analyzer (Nova Biomedical, Waltham, Mass.) according to the manufacturer's specifications. Induction of bone resorption by PTH is seen as an increase in the concentration of calcium in the growth medium due to degradation of the bone matrix.

[2] = target: T1, human calcitonin receptor (Homo sapiens, UniProt P30988); assay: CRE-luciferase assay for calcitonin mimetic activity; type: cell-based
T1 construct: expressed in transfected cells; host or cells: BHK (baby hamster kidney) cells, line Hollex-2 (Hollex 1 in the general description)
T1 sequence (P30988 25-474): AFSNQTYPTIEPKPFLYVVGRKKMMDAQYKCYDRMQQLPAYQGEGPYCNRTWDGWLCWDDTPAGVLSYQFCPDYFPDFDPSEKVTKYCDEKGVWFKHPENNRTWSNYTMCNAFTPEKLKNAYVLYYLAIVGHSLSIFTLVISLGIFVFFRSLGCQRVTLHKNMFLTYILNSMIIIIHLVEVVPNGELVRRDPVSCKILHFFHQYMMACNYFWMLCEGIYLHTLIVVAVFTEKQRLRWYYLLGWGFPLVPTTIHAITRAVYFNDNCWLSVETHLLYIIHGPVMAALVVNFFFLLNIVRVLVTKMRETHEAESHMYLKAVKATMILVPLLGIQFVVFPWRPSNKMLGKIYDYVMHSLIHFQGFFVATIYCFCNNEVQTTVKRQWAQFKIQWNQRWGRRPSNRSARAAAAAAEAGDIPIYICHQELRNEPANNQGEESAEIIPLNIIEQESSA
Source text: An alternative assay system (described in WO96/31536 which is incorporated herein in its entirety) involves selection of substances that are able to induce expression of a cyclic AMP response element (CRE)-luciferase reporter gene, as a consequence of elevated cAMP levels, in cells expressing a calcitonin receptor, but not in cells lacking calcitonin receptor expression. Such cells could include, for example, Boris/KS10-3 (expressing hamster calcitonin receptor and a CRE-luciferase reporter gene in baby hamster kidney cells (BHK 570 cells)) or Hollex 1 (expressing human calcitonin receptor and a CRE-luciferase reporter gene in BHK cells, as described in WO96/31536) or KZ10-20-48/pLJ6-4-25, which expresses the human glucagon receptor and a CRE-luciferase reporter gene in BHK cells. The human glucagon receptor is another member of the G-protein-coupled receptor family that transduces signal through adenylate cyclase-mediated elevation of cAMP.
This CRE-luciferase assay measures the end result of a multi-step signal transduction pathway triggered when a calcitonin mimetic stimulates the G-coupled calcitonin receptor. The complexity of this pathway provides multiple mechanisms for induction of luciferase transcription at points that are downstream of the calcitonin receptor, and therefore may not be calcitonin receptor-specific (e.g., forskolin's direct activation of adenylate cyclase). Any response triggered by non-specific inducers is eliminated by counter screening using the calcitonin receptor-negative cell lines described above.
Receptor-positive and -negative cell lines were maintained by serial passage in growth medium (DMEM supplemented with 10% heat-inactivated fetal calf serum (HI-FCS), 2 mM L-glutamine, 1 mM sodium pyruvate, 250 nM MTX, and 1 mg/mL G418). On the day prior to assay, cells were trypsinized, adjusted to 2×10^5 cells/mL in growth medium, plated in opaque white Dynatech Microlite microtiter tissue culture plates at 100 μL/well (2×10^4 cells), and grown overnight to confluence (37° C., 5% CO2 atmosphere)
Test substances were prepared in DMSO at 100 times the final desired assay concentration. Induction was initiated by adding 100 μL/well test substance diluted 1:100 or 1:1000 (only first round screening extracts were diluted 1:100) in assay medium (DMEM supplemented with 10% HI-FCS, 2 mM L-glutamine, 1 mM sodium pyruvate and 20 mM Hepes, pH 7.25). Controls were included on each plate: untreated wells (basal), […] forskolin, and 100 nM human calcitonin. For test substances prepared in DMSO, an equal concentration of DMSO was included in control wells (not to exceed a final assay concentration of 2% DMSO, with a preferred maximum of 1%). Plates were incubated for 3 to 8 hours (4 hours preferred) at 37° C. in an atmosphere of 5% CO2.
Following induction, luciferase activity was measured using a Promega luciferase assay kit (E1500) according to the assay kit protocol. Briefly, assay medium was removed and cells were washed once with phosphate buffered saline (PBS). After the wash, 25 μL of lysis buffer was added to each well, and the plates were incubated for 15 minutes at room temperature. Fifty microliters of Luciferase Assay Substrate (Promega, Corp.) was added to each well and the plates were transferred to a Labsystems Lumiscan microtiter luminometer. The amount of luminescence (relative light units, RLU) was determined by “Fastscan” following a 0.1 second/well integration of signal. Basal (uninduced) luciferase signal was subtracted from all measurements, and the luciferase signal induced by test samples was expressed as a percentage of the signal in the calcitonin and forskolin controls. […]

[3] = rats, evaluated by pQCT or histomorphometry; cited from earlier work

| Compound | IC50 [1] [µg/mL] | pEC50 [2] | bone loss associated with combined ovariectomy and immobilization [3] | melting point [°C] |
| --- | --- | --- | --- | --- |
| COc1ccc(CN2CCN(Cc3cc(I)c(O)c(OC)c3)CC2)cc1C [Compound 850-0293] | 25 to 50 (≈ 51.8 to 104 µM) | 3.98 to 4.29 |  |  |
| calcitonin |  |  | very effective at reducing bone loss |  |
| COc1cc(CN2CCN(C(=O)Nc3cccc(C(F)(F)F)c3)CC2)cc(O)c1OC [Compound 50-2013] | 15 (≈ 34.1 µM) | 4.36 |  |  |
| COc1cc(CN2CCN(C(=O)Nc3cccc(C(F)(F)F)c3)CC2)cc(OC)c1OC [Compound 850-0277] | 50 (≈ 110 µM) |  |  | 79 to 82 |
| COc1cc(CN2CCN(Cc3cc(Br)cc(Br)c3O)CC2)cc(OC)c1OC [Compound 850-1085] | 20 (≈ 37.7 µM) | 4.17 |  |  |
| COc1cc(CN2CCN(Cc3ccc(OC)c(OC)c3OC)CC2)cc(I)c1O [Compound 850-0221] |  | 3.54 |  |  |
| COc1cc(CN2CCN(Cc3cc(Br)ccc3O)CC2)cc(Br)c1O [Compound 850-2346] | 25 (≈ 51.4 µM) | 3.69 |  |  |
